Experiments:
[1] = tested on: PC3 (human prostate cancer); test: Methyl-Tetrazolium viability assay, PC3; type: cell-based; parameters: key: absorbance at 570 nm (optical density)
Description: The Methyl-Tetrazolium dye assay measures the activity of enzymes in mitochondria. The dye precursor is taken up by cells, where it undergoes reduction to the purple formazan. It measures only the mitochondrial activity and, thus, it is not always a reliable indication of whether the cells themselves are alive or dead, since even a recently dead cell has […] enzyme activity in mitochondria. Intracellular glucose concentration, pH, and time before assay all affect the measurements.
(§1) The Methyl Tetrazolium, Sulforhodamine B, and Crystal Violet assays were used to assess cell viabilities. The incubation times were 24 hours, 48 hours, and 72 hours. The Nerium oleander extract Anvirzel™ (a hot water extract of oleander obtained from Salud Integral, Honduras) was tested in concentrations ranging from 0.01 ng/mL to 10 ng/mL.
(§2) Cells were detached by trypsinization (Trypsin-0.25% EDTA, Invitrogen, 25200-072) during the logarithmic phase of culture growth and plated in 96-well plates (18.000 cells/well) (Corning, Costar 359) in a final volume of 200 μl of medium per well. […] The absorbance was measured after 24 hours, 48 hours, and 72 hours of incubation.
For the Methyl-Tetrazolium assay, the dye (Sigma, M2128; 5 mg/mL, diluted in phosphate-buffered saline) was added to each well and plates were incubated for 3 hours at 37° C. After the end of the incubation period, the medium was discarded and the cells were rinsed with phosphate-buffered saline. Finally, the formazan crystals were dissolved in dimethylsulphoxide (Sigma, D4540).
(§3) The optical density of each plate was measured on a μQuant spectrophotometer and the data were analyzed with Gen5 software (μQuant Biomolecular Spectrophotometer MQX200 and Gen5™ Microplate Data Collection & Analysis software, BioTek® Instruments. Inc, April 2008). Absorbance was measured at 570 nm for all assays and a second wavelength was measured in order to subtract noise. For the Methyl-Tetrazolium assay this second wavelength was 630 nm and for the Sulforhodamine B and Crystal Violet assays it was 690 nm.

[2] = tested on: HCT-15 (colorectal cancer); test: Crystal Violet viability assay, HCT-15; type: cell-based, human; parameters: key to CVE Average: absorbance at 570 nm (second wavelength subtracted); conditions: for CVE Average 24 h / CVE Average 48 h / CVE Average 72 h: HCT-15, Run 1
Description: The Sulforhodamine B and Crystal Violet assays provide information about protein and were used to complement the Methyl-Tetrazolium dye assay. […] It is used for the quantification of cellular proteins of cultured cells. The assay using Crystal Violet, a dye that binds electrostatically to proteins and stains DNA, provides a reliable, simple assay for measuring viability of cells.
as §1, §2
For the Crystal Violet assay, the medium was removed from the 96-well plates, the plates rinsed with PBS (Sigma, P3813) and then the cells were […] by the addition of 10% formalin (MERCK, 1.04003.2500) for 20 minutes at RT. Formalin was removed and 0.25% aqueous crystal violet (Sigma, HT901), dissolved in water, was added for 10 minutes at RT. Unbound Crystal Violet was rinsed by washing with water and finally 33% acetic acid was added to dissolve the dye.
as §3

## N.N.[Cl][Pt][Cl] [cisplatin]
[1]; PC3 Run 1, 24 h, 0.1 μg/ml CDDP
  MTT Average: 0.137
[1]; PC3 Run 1, 24 h, 1 μg/ml CDDP
  MTT Average: 0.049
[1]; PC3 Run 1, 24 h, 10 μg/ml CDDP
  MTT Average: 0.091
[1]; PC3 Run 1, 24 h, 100 μg/ml CDDP
  MTT Average: 0.053
[1]; PC3 Run 1, 48 h, 0.1 μg/ml CDDP
  MTT Average: 0.162
[1]; PC3 Run 1, 48 h, 1 μg/ml CDDP
  MTT Average: 0.027
[1]; PC3 Run 1, 48 h, 10 μg/ml CDDP
  MTT Average: 0.064
[1]; PC3 Run 1, 48 h, 100 μg/ml CDDP
  MTT Average: 0.029
[1]; PC3 Run 1, 72 h, 0.1 μg/ml CDDP
  MTT Average: 0.188
[1]; PC3 Run 1, 72 h, 1 μg/ml CDDP
  MTT Average: 0.034
[1]; PC3 Run 1, 72 h, 10 μg/ml CDDP
  MTT Average: 0.044
[1]; PC3 Run 1, 72 h, 100 μg/ml CDDP
  MTT Average: 0.029
[1]; PC3 Run 2, 24 h, 0.1 μg/ml CDDP
  MTT Average: 0.072
[1]; PC3 Run 2, 24 h, 1 μg/ml CDDP
  MTT Average: 0.04
[1]; PC3 Run 2, 24 h, 10 μg/ml CDDP
  MTT Average: 0.079
[1]; PC3 Run 2, 24 h, 100 μg/ml CDDP
  MTT Average: 0.052
[1]; PC3 Run 2, 48 h, 0.1 μg/ml CDDP
  MTT Average: 0.195
[1]; PC3 Run 2, 48 h, 1 μg/ml CDDP
  MTT Average: 0.051
[1]; PC3 Run 2, 48 h, 10 μg/ml CDDP
  MTT Average: 0.074
[1]; PC3 Run 2, 48 h, 100 μg/ml CDDP
  MTT Average: 0.047
[1]; PC3 Run 2, 72 h, 0.1 μg/ml CDDP
  MTT Average: 0.223
[1]; PC3 Run 2, 72 h, 1 μg/ml CDDP
  MTT Average: 0.039
[1]; PC3 Run 2, 72 h, 10 μg/ml CDDP
  MTT Average: 0.068
[1]; PC3 Run 2, 72 h, 100 μg/ml CDDP
  MTT Average: 0.037
[1]; PC3 Run 3, 24 h, 0.1 μg/ml CDDP
  MTT Average: 0.088
[1]; PC3 Run 3, 24 h, 1 μg/ml CDDP
  MTT Average: 0.041
[1]; PC3 Run 3, 24 h, 10 μg/ml CDDP
  MTT Average: 0.096
[1]; PC3 Run 3, 24 h, 100 μg/ml CDDP
  MTT Average: 0.053
[1]; PC3 Run 3, 48 h, 1 μg/ml CDDP
  MTT Average: 0.033
[1]; PC3 Run 3, 48 h, 10 μg/ml CDDP
  MTT Average: 0.062
[1]; PC3 Run 3, 48 h, 100 μg/ml CDDP
  MTT Average: 0.03
[1]; PC3 Run 3, 72 h, 0.1 μg/ml CDDP
  MTT Average: 0.151
[1]; PC3 Run 3, 72 h, 1 μg/ml CDDP
  MTT Average: 0.027
[1]; PC3 Run 3, 72 h, 10 μg/ml CDDP
  MTT Average: 0.057
[1]; PC3 Run 3, 72 h, 100 μg/ml CDDP
  MTT Average: 0.028
[2]; 0.1 μg/ml CDDP
  CVE Average 24 h: 0.787
  CVE Average 48 h: 0.99
  CVE Average 72 h: 2.312
[2]; 1 μg/ml CDDP
  CVE Average 24 h: 0.451
  CVE Average 48 h: 0.187
  CVE Average 72 h: 0.425
[2]; 10 μg/ml CDDP
  CVE Average 24 h: 0.59
  CVE Average 48 h: 0.277
  CVE Average 72 h: 0.282
[2]; 100 μg/ml CDDP
  CVE Average 24 h: 0.456
  CVE Average 48 h: 0.214
  CVE Average 72 h: 0.231
[2]; Run 2, 24 h, 0.1 μg/ml CDDP
  CVE Average: 0.766
[2]; Run 2, 24 h, 1 μg/ml CDDP
  CVE Average: 0.387
[2]; Run 2, 24 h, 10 μg/ml CDDP
  CVE Average: 0.824
[2]; Run 2, 24 h, 100 μg/ml CDDP
  CVE Average: 0.41
[2]; Run 2, 48 h, 0.1 μg/ml CDDP
  CVE Average: 1.542
[2]; Run 2, 48 h, 1 μg/ml CDDP
  CVE Average: 0.533
[2]; Run 2, 48 h, 10 μg/ml CDDP
  CVE Average: 0.742
[2]; Run 2, 48 h, 100 μg/ml CDDP
  CVE Average: 0.378
[2]; Run 2, 72 h, 0.1 μg/ml CDDP
  CVE Average: 2.449
[2]; Run 2, 72 h, 1 μg/ml CDDP
  CVE Average: 0.533
[2]; Run 2, 72 h, 10 μg/ml CDDP
  CVE Average: 0.46
[2]; Run 2, 72 h, 100 μg/ml CDDP
  CVE Average: 0.327
[2]; Run 3, 24 h, 0.1 μg/ml CDDP
  CVE Average: 2.043
[2]; Run 3, 24 h, 1 μg/ml CDDP
  CVE Average: 0.459
[2]; Run 3, 24 h, 10 μg/ml CDDP
  CVE Average: 1.477
[2]; Run 3, 24 h, 100 μg/ml CDDP
  CVE Average: 0.473
[2]; Run 3, 48 h, 0.1 μg/ml CDDP
  CVE Average: 1.335
[2]; Run 3, 48 h, 10 μg/ml CDDP
  CVE Average: 0.363
[2]; Run 3, 48 h, 100 μg/ml CDDP
  CVE Average: 0.114
[2]; Run 3, 72 h, 0.1 μg/ml CDDP
  CVE Average: 2.814
[2]; Run 3, 72 h, 1 μg/ml CDDP
  CVE Average: 0.623
[2]; Run 3, 72 h, 10 μg/ml CDDP
  CVE Average: 0.669
[2]; Run 3, 72 h, 100 μg/ml CDDP
  CVE Average: 0.499
